Data on one compound can be found in patent US9476099B2 (TRUSTEES OF DARTMOUTH COLLEGE, priority 2012, dated 2016).

The test system of this test is NT2/D1-R1 control and DNMT3B knockdown cells. The test can be described thus: Genome-wide expression analysis with PAM clusters, control and DNMT3B knockdown cells (Tables 8-14). As to conditions: 10 nM, 3 days; NT2/D1-R1.

In the case of `Nc1ncn([C@H]2C[C@H](O)[C@@H](CO)O2)c(=O)n1` [decitabine, 5-aza-deoxycytidine], the “Cluster 1: genes down-regulated by low dose decitabine in control cells but not in DNMT3B knockdown cells” value is on record as 129 genes; the “Cluster 2: genes induced by decitabine only in control cells and not in sh-DNMT3B cells” value is recorded as 337 genes.
